Measured values: patent publication US6323235A, “Benzene-condensed heterocyclic derivatives and their uses” (priority 1995, dated 2001)

Columns and labels:
[1] = system: platelet aggregation induced by TXA2 agonist U-46619; assay: Platelet Aggregation-inhibition Action 1 (U-46619-induced, platelet-rich plasma); format: cell-based; conditions: U-46619 1-4 μM final, PRP, compound added one minute before U-46619
Method: Platelet Aggregation-inhibition Action 1
(§1) Blood collected from medial cubital vein is centrifuged at 800 rmp for 10 minutes and the upper portion of the resultant is collected as platelet-rich plasma (PRP). The PRP is dividedly poured into small test tubes and a TXA2 agonist U-46619 is added thereto (final concentration: 1-4 μM) so as to induce platelet aggregation. The degree of platelet aggregation is measured in terms of change in turbidity by a platelet aggregation measuring apparatus (Hematoracer, NIKO BIOSCIENCE). The compound is added one minute before the addition of U-46619 and the concentration of the compound at which the aggregation is inhibited by 50% is calculated as IC50 value.

[2] = system: platelet aggregation induced by ADP; assay: Platelet Aggregation-Inhibition Action 2 (ADP-induced, platelet-rich plasma); format: cell-based; conditions: ADP 1-3 μM final, PRP, compound added one minute before ADP
Method: Platelet Aggregation-Inhibition Action 2
as §1, with “PRP).” for “(PRP).”, “ADP” for “a TXA2 agonist U-46619”, “1-3” for “1-4”, “Hematoracer,” for “(Hematoracer,”, “ADP” for “U-46619 and”

TXA2 receptor = target: T1, TXA2 receptor (Oryctolagus cuniculus, UniProt Q6WQI8); assay: TXA2 Receptor Binding Test 1 ([3H]SQ29548, washed rabbit platelets); parameters: species or system New Zealand White rabbit; conditions: [3H]SQ29548 3 nM, rabbit washed platelets 10 mg/ml, 25° C., 60 minutes
T1 sequence (Q6WQI8 1-233): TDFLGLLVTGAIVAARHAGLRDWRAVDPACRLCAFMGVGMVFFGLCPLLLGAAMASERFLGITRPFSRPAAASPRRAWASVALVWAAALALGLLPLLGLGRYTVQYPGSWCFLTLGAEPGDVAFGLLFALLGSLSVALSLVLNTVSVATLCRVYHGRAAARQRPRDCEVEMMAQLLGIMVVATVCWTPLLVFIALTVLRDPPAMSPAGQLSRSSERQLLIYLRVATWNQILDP
Method: TXA2 Receptor Binding Test 1
Blood from a New Zealand White rabbit is taken in a vessel containing ACD solution (prepared by dissolving 1.175 g of sodium citrate, 0.685 g of citric acid and 1 g of dextrose in 50 ml of distilled water) and centrifuged at 180×g for 10 minutes at room temperature to obtain platelet-rich plasma. The obtained platelet-rich plasma is centrifuged at […] at room temperature to precipitate platelets. The platelets are then suspended in 50 mM Tris-HCl buffer (pH 7.2, containing 0.154M of NaCl) and the suspension is centrifuged at 2800×g for 15 minutes at 4° C. These operations are repeated twice to prepare washed platelets and the concentration of the platelets are adjusted to a final concentration of 10 mg/ml (wet weight).
As the ligand of TXA2, tritium-labelled SQ29548 ([^3 H]SQ29548) is used. In the antagonism test, 20 μl of [^3 H]SQ29548 having a final concentration of 3 nM is added to 500 μl of a platelet suspension having a platelet concentration of 10 mg/ml and 2.6 μl of a solution of a test compound dissolved in an appropriate solvent is added thereto. After incubating the resulting mixture at 25° C. for 60 minutes, the mixture is filtered through a glass filter by the cell harvester method. After washing the filter with 50 mM Tris-HCl buffer (3×4 ml), the radioactivity of the filter is measured by a scintillation counter, thereby measuring the amount of the [^3 H]SQ29548 bound to platelets. In the saturation test, 20 μl of [^3 H]SQ29548 is added to a final concentration of 0.1-50 nM and 2.6 μl of BM13505 having a final concentration of 1 μM is added so as to check non-specific binding, followed by carrying out the binding test. The concentration of the test compound at which binding of [^3 H]SQ29548 is inhibited by 50% is determined as the IC50 value.
The results of the evaluation of the activities of the compounds of the present invention by this method are summarized d in Table 3.

SMILES	IC50 [1] [nM]	IC50 [2] [nM]	IC50 (TXA2 receptor) [nM]
O=C(O)COc1cccc2c(CNS(=O)(=O)CCOc3ccccc3)coc12 [Example 4]	1100		
O=C(O)COc1cccc2c(CNS(=O)(=O)CCc3ccccc3)coc12 [Example 8, (3-(((2-phenylethyl)sulfonylamino)methyl)benzofuran-7-yloxy)acetic acid]	1000	305000	
O=C(O)COc1cccc2c(CNS(=O)(=O)CCCc3ccccc3)coc12 [Example 9, (3-((3-phenylpropylsulfonylamino)methyl)benzofuran-7-yloxy)acetic acid]	300		4.46
O=C(O)COc1cccc2c(CNS(=O)(=O)c3ccc4ccccc4c3)coc12 [Example 13]	7200		29.2
Cc1oc2c(OCC(=O)O)cccc2c1CNS(=O)(=O)CCCc1ccccc1 [Example 17, (3-(((3-phenylpropyl)sulfonylamino)methyl)-2-methylbenzofuran-7-yloxy)acetic acid]	140		1.92
CC(C)c1oc2c(OCC(=O)O)cccc2c1CNS(=O)(=O)CCc1ccccc1 [Example 19, (3-(((2-phenylethyl)sulfonylamino)methyl)-2-isopropylbenzofuran-7-yloxy)acetic acid]	1400		788
Cc1oc2c(OCC(=O)O)cccc2c1CCNS(=O)(=O)Cc1ccccc1 [Example 24, (3-(2-(benzylsulfonylamino)ethyl)-2-methylbenzofuran-7-yloxy)acetic acid]	88		18.6
Cc1oc2c(OCC(=O)O)cccc2c1CCNS(=O)(=O)CCc1ccccc1 [Example 25, (3-(2-(2-phenylethylsulfonylamino)ethyl)-2-methylbenzofuran-7-yloxy)acetic acid]	140		4.79
Cc1oc2c(OCC(=O)O)cccc2c1CC[S+]([O-])CCc1ccccc1 (stereo not drawn) [Example 32, (3-(2-(2-phenylethylsulfinyl)ethyl)-2-methylbenzofuran-7-yloxy)acetic acid]	1600		569
Cc1oc2c(OCC(=O)O)cccc2c1CCS(=O)(=O)CCc1ccccc1 [Example 33, (3-(2-(2-phenylethylsulfonyl)ethyl)-2-methylbenzofuran-7-yloxy)acetic acid]	1100		91.9
Cc1oc2c(OCC(=O)O)cccc2c1CCON=C(c1ccccc1)c1ccccc1 [Example 35, (3-(2-(diphenylmethyleneaminoxy)ethyl)-2-methylbenzofuran-7-yloxy)acetic acid]	4500	7800	
O=C(O)COc1cccc2c(CCOC(c3ccccc3)c3ccccc3)coc12 [Example 43, (3-(2-(diphenylmethoxy)ethyl)benzofuran-7-yloxy)acetate]	4000		69.6
O=C(O)COc1cccc2c(CCOCc3ccc(-c4ccccc4)cc3)coc12 [Example 46, (3-(2-(4-phenylbenzyloxy)ethyl)benzofuran-7-yloxy)acetic acid]			596
O=C(O)COc1cccc2c(CCOCC(=O)c3ccccc3)coc12 [Example 47, (3-(2-(2-oxo-2-phenylethoxy)ethyl)benzofuran-7-yloxy)acetic acid]			3670
O=C(O)COc1cccc2c(COCC(c3ccccc3)c3ccccc3)coc12 [Example 49, (3-((2,2-diphenylethoxy)methyl)benzofuran-7-yloxy)acetic acid]		8200	
C[C@@H](COCc1coc2c(OCC(=O)O)cccc12)c1ccccc1 [Example 51, (R)-(3-((2-phenylpropyloxy)methyl)benzofuran-7-yloxy)acetic acid]			229

SMILES	IC50 [1] [nM]	IC50 [2] [nM]	IC50 (TXA2 receptor) [nM]
O=C(O)COc1cccc2c(COC(Cc3ccccc3)Cc3ccccc3)coc12 [Example 53, (3-((1-benzyl-2-phenylethoxy)methyl)benzofuran-7-yloxy)acetic acid]			2020
O=C(O)COc1cccc2c(COCCOC(c3ccccc3)c3ccccc3)coc12 [Example 59, (3-((2-(diphenylmethoxy)ethoxy)methyl)benzofuran-7-yloxy)acetic acid]	330	600	
Cc1oc2c(OCC(=O)O)cccc2c1CCSC(c1ccccc1)c1ccccc1 [Example 81, (3-(2-(diphenylmethylthio)ethyl)-2-methylbenzofuran-7-yloxy)acetic acid]	640	4500	
O=C(O)COc1cccc2c(CCSC(c3ccccc3)c3ccccc3)c(CO)oc12 [Example 83, (2-hydroxymethyl-3-(2-(diphenylmethylthio)ethyl)benzofuran-7-yloxy)acetic acid]	460	3300	
O=C(O)COc1cccc2c(CCSC(c3ccccc3)c3ccccc3)c(CCO)oc12 [Example 85]	620	750	
O=C(O)COc1cccc2c(CCSCC(c3ccccc3)c3ccccc3)coc12 [Example 88, (3-(2-(2,2-diphenylethylthio)ethyl)benzofuran-7-yloxy)acetic acid]	510	730	
O=C(O)COc1cccc2c(CCCSC(c3ccccc3)c3ccccc3)coc12 [Example 91, (3-(3,3-diphenylmethylthiopropyl)benzofuran-7-yloxy)acetic acid]		1900	
O=C(O)COc1cccc2c(COCC=C(c3ccccc3)c3ccccc3)coc12 [Example 94, (3-((3,3-diphenyl-2-propenyloxy)methyl)benzofuran-7-yloxy)acetic acid]	710		
C[C@H](COC(c1ccccc1)c1ccccc1)OCc1coc2c(OCC(=O)O)cccc12 [Example 97, (R)-(3-((2-(diphenylmethoxy)-1-methylethoxy)methyl)benzofuran-7-yloxy)acetic acid]	1600	3400	
O=C(O)COc1cccc2c(CC(O)CCC(c3ccccc3)c3ccccc3)coc12 (stereo not drawn) [Example 101, (3-(2-hydroxy-5,5-diphenylpentyl)benzofuran-7-yloxy)acetic acid]	1500	1800	
Cc1ccc(S(=O)(=O)NCCn2ccc3c(OCC(=O)O)cccc32)cc1 [Example 103]	1300		3.09
O=C(O)COc1cccc2c1ccn2CCOCC(c1ccccc1)c1ccccc1 [Example 109, (1-(2-(2,2-diphenylethoxy)ethyl)indole-4-yloxy)acetic acid]		27900	
O=C(O)COc1cccc2c1ccn2CCSC(c1ccccc1)c1ccccc1 [Example 112, (1-(2-(diphenylmethylthio)ethyl)indole-4-yloxy)acetate]	840	4500	
O=C(O)COc1cccc2c1CCN2CCOCC(c1ccccc1)c1ccccc1 [Example 122, (1-(2-(2,2-diphenylethoxy)ethyl)indoline-4-yloxy)acetic acid]	1400	2700	
O=C(O)COc1cccc2c1CCN2CCSC(c1ccccc1)c1ccccc1 [Example 125, (1-(2-(diphenylmethylthio)ethyl)indoline-4-yloxy)acetic acid]	720	3100	
O=C(O)COc1cccc2cc(COCCOC(c3ccccc3)c3ccccc3)oc12 [Example 130, (2-(2-diphenylmethoxyethoxymethyl)benzofuran-7-yloxy)acetic acid]	18000		
